From ChEMBL document CHEMBL1141671, “N6-1,3-diphenylurea derivatives of 2-phenyl-9-benzyladenines and 8-azaadenines: synthesis and biological evaluation as allosteric modulators of A2A adenosine receptors” (Eur J Med Chem, 2008)

Legend:
[1] = biological target: T1, Adenosine receptor A2a (Homo sapiens, UniProt P29274); assay: Displacement of [3H]ZM241385 from human recombinant adenosine A2A receptor expressed in CHO cells at 10 uM by liquid scintillation counting relative to control; type: cell-based
T1 sequence (P29274 whole entry): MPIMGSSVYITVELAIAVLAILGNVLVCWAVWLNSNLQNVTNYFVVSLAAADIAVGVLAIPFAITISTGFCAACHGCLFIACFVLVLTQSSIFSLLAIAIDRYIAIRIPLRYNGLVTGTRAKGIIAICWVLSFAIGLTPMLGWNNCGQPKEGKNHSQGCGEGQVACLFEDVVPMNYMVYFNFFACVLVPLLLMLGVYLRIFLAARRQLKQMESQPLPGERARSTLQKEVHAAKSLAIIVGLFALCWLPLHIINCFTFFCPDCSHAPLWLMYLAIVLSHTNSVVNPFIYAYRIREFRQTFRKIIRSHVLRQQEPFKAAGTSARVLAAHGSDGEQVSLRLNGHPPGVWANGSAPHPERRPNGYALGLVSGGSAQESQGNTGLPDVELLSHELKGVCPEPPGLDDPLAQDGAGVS

[2] = biological target: T2, Adenosine receptor A3 (Homo sapiens) (UniProt P0DMS8); assay: Displacement of [3H]NECA from human recombinant adenosine A3 receptor expressed in CHO cells at 10 uM by liquid scintillation counting relative to control; type: cell-based
T2 sequence (whole entry): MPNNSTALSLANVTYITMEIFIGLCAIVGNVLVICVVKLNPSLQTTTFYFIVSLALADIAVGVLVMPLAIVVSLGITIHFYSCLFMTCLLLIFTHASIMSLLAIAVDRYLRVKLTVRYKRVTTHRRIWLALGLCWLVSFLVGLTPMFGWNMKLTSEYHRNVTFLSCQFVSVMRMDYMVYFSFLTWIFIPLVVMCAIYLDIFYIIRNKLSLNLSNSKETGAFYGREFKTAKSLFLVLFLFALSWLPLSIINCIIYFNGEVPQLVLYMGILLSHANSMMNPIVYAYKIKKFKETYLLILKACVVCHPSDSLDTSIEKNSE

[3] = biological target: T3, Adenosine receptor A1 (Rattus norvegicus) (UniProt P25099); assay: Displacement of [3H]DPCPX from adenosine A1 receptor in Wistar rat cerebral cortex at 10 uM by liquid scintillation counting relative to control; type: tissue-based
T3 sequence (whole entry): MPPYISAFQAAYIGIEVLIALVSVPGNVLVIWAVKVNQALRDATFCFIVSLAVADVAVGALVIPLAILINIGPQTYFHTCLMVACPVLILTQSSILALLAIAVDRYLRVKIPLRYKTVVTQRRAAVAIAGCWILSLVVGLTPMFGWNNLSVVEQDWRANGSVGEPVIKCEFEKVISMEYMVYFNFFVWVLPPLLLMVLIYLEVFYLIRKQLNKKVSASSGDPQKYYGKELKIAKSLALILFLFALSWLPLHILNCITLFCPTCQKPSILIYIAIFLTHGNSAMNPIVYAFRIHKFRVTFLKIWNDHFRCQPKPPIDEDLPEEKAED

[4] = biological target: T1, Adenosine receptor A2a; assay: Displacement of [3H]CGS21680 from human recombinant adenosine A2A receptor expressed in CHO cells at 10 uM by liquid scintillation counting relative to control; type: cell-based
[5] = biological target: T3, Adenosine receptor A1 (Rattus norvegicus); assay: Displacement of [3H]CCPA adenosine A1 receptor in Wistar rat cerebral cortex at 10 uM by liquid scintillation counting relative to control; type: tissue-based
[6] = biological target: T4, Adenosine receptor A1 (Rattus norvegicus, UniProt P25099); assay: Displacement of [3H]CCPA from adenosine A1 receptor in Wistar rat cerebral cortex by liquid scintillation counting; type: tissue-based
T4 sequence (P25099 whole entry): T3 sequence (whole entry)

[7] = biological target: T1, Adenosine receptor A2a; assay: Displacement of [3H]ZM241385 from human recombinant adenosine A2A receptor expressed in CHO cells by liquid scintillation counting; type: cell-based
[8] = biological target: T4, Adenosine receptor A1; assay: Displacement of [3H]DPCPX from adenosine A1 receptor in Wistar rat cerebral cortex by liquid scintillation counting; type: tissue-based
[9] = biological target: T1, Adenosine receptor A2a; assay: Displacement of [3H]CGS21680 from human recombinant adenosine A2A receptor expressed in CHO cells by liquid scintillation counting; type: cell-based
[10] = biological target: T1, Adenosine receptor A2a; conditions: CHO
Description: Displacement of [3H]ZM241385 from human adenosine A2A receptor expressed in CHO cells assessed as time course of dissociation at 10 uM by liquid scintillation counting relative to control

[11] = biological target: T1, Adenosine receptor A2a; conditions: CHO; remark: listed apart in the source
Description: Dissociation of [3H]ZM241385 from human adenosine A2A receptor expressed in CHO cells at 100 uM by liquid scintillation counting relative to control

[12] = biological target: T5, Adenosine receptor A3 (Homo sapiens, UniProt P0DMS8); assay: Displacement of [3H]NECA from human recombinant adenosine A3 receptor expressed in CHO cells by liquid scintillation counting; type: cell-based
T5 sequence (P0DMS8 whole entry): T2 sequence (whole entry)

[13] = tested on: Aorta; assay: Vasorelaxation activity in Wistar rat endothelium-intact aortic ring assessed as inhibition of noradrenaline-induced contraction at 10 uM after 20 mins; type: functional
[14] = tested on: Aorta; assay: tissue or blood; conditions: Rattus norvegicus, Wistar, 20 min, read-out: pIC50 (converted)
[15] = tested on: Aorta; assay: Vasorelaxation activity in Wistar rat endothelium-intact aortic ring assessed as inhibition of noradrenaline-induced contraction after 20 mins; conditions: read-out: pIC50 (converted)
[16] = tested on: Aorta; assay: Potentiation of CGS-21680-induced vasorelaxation activity in Wistar rat endothelium-intact aortic ring assessed as inhibition of noradrenaline-induced contraction at 10 uM after 20 mins; type: functional

**Q.** How did the Activity [1] turn out when O=C(Nc1ccccc1)Nc1ccc(Nc2nc(-c3ccccc3)nc3c2ncn3Cc2ccccc2)cc1 was run?
**A.** The Activity was 107%.

**Q.** And the Activity [2]?
**A.** The Activity was 53%.

**Q.** What about the Activity [3] of the same compound?
**A.** The Activity was 101%.

**Q.** And the Activity [4]?
**A.** The Activity was 74%.

**Q.** What about the Activity [5] of the same compound?
**A.** Its Activity is 73%.

**Q.** COc1ccc(NC(=O)Nc2ccc(Nc3nc(-c4ccccc4)nc4c3nnn4Cc3ccccc3)cc2)cc1 was tested. Which Activity [1] did it give?
**A.** Its Activity is 142%.

**Q.** And the Activity [2]?
**A.** The Activity was 58%.

**Q.** What about the Activity [3] of the same compound?
**A.** Its Activity is 105%.

**Q.** And the Activity [4]?
**A.** Its Activity is 59%.

**Q.** And the Activity [5]?
**A.** Its Activity is 74%.

**Q.** What does the source list for Nc1ccc(Nc2nc(-c3ccccc3)nc3c2ncn3Cc2ccccc2)cc1?
**A.** Ki [6]: 294 nM; Activity [1]: 59%; Ki [7]: 5740 nM; Activity [2]: 56%; Activity [3]: 46%; Activity [4]: 44%; Ki [8]: 396 nM; Activity [5]: 7%; Ki [9]: 4170 nM

**Q.** How did the Ki [6] turn out when O=[N+]([O-])c1ccc(Nc2nc(-c3ccccc3)nc3c2ncn3Cc2ccccc2)cc1 was run?
**A.** Its Ki is 571 nM.

**Q.** What about the Activity [1] of the same compound?
**A.** The Activity was 84%.

**Q.** And the Ki [7]?
**A.** The Ki was 1900 nM.

**Q.** And the Activity [2]?
**A.** The Activity was 51%.

**Q.** What about the Activity [3] of the same compound?
**A.** Its Activity is 84%.

**Q.** What about the Activity [4] of the same compound?
**A.** The Activity was 114%.

**Q.** What about the Ki [8] of the same compound?
**A.** The Ki was 699 nM.

**Q.** What about the Activity [5] of the same compound?
**A.** Its Activity is 2%.

**Q.** How did the Activity [1] turn out when O=[N+]([O-])c1ccc(Nc2nc(-c3ccccc3)nc3c2nnn3Cc2ccccc2)cc1 was run?
**A.** The Activity was 98%.

**Q.** And the Activity [2]?
**A.** Its Activity is 58%.

**Q.** And the Activity [3]?
**A.** The Activity was 105%.

**Q.** What about the Activity [4] of the same compound?
**A.** The Activity was 96%.

**Q.** And the Activity [5]?
**A.** Its Activity is 33%.

**Q.** Which results are given for Nc1ccc(Nc2nc(-c3ccccc3)nc3c2nnn3Cc2ccccc2)cc1?
**A.** Ki [6]: 103 nM; Activity [1]: 77%; EC50 [7]: 9740 nM; Ki [7]: 1300 nM; Activity [2]: 49%; T1/2 [10]: 8.89 s; Activity [3]: 33%; Activity [4]: 0%; EC50 [8]: 750 nM; Ki [8]: 132 nM; Activity [5]: 4%; Ki [9]: 280 nM; Kdiss [11]: 0.078 s⁻¹

**Q.** How did the Activity [1] turn out when O=C(Nc1ccc(Nc2nc(-c3ccccc3)nc3c2nnn3Cc2ccccc2)cc1)Nc1ccc(C(F)(F)F)cc1 was run?
**A.** Its Activity is 127%.

**Q.** What about the Activity [2] of the same compound?
**A.** The Activity was 72%.

**Q.** And the Activity [3]?
**A.** The Activity was 94%.

**Q.** And the Activity [4]?
**A.** The Activity was 180%.

**Q.** What about the Activity [5] of the same compound?
**A.** The Activity was 74%.

**Q.** For O=C(Nc1ccc(Nc2nc(-c3ccccc3)nc3c2ncn3Cc2ccccc2)cc1)Nc1ccc(C(F)(F)F)cc1, which Activity [1] is on record?
**A.** The Activity was 149%.

**Q.** What about the Activity [2] of the same compound?
**A.** Its Activity is 37%.

**Q.** What about the Activity [3] of the same compound?
**A.** Its Activity is 106%.

**Q.** What about the Activity [4] of the same compound?
**A.** The Activity was 57%.

**Q.** And the Activity [5]?
**A.** The Activity was 67%.

**Q.** And the Ki [12]?
**A.** The Ki was 5610 nM.

**Q.** Which Activity [1] does the source give for COc1ccc(NC(=O)Nc2ccc(Nc3nc(-c4ccccc4)nc4c3ncn4Cc3ccccc3)cc2)cc1 here?
**A.** Its Activity is 166%.

**Q.** And the Activity [2]?
**A.** The Activity was 56%.

**Q.** And the Activity [3]?
**A.** The Activity was 107%.

**Q.** What about the Activity [4] of the same compound?
**A.** Its Activity is 120%.

**Q.** What about the Activity [5] of the same compound?
**A.** The Activity was 68%.

**Q.** Which results are given for O=C(Nc1ccc(F)cc1)Nc1ccc(Nc2nc(-c3ccccc3)nc3c2ncn3Cc2ccccc2)cc1?
**A.** Activity [1]: 111%; Activity [2]: 70%; Activity [3]: 105%; Activity [4]: 83%; Activity [5]: 85%

**Q.** O=C(Nc1ccc(F)cc1)Nc1ccc(Nc2nc(-c3ccccc3)nc3c2nnn3Cc2ccccc2)cc1 was tested. Which Activity [1] did it give?
**A.** Its Activity is 167%.

**Q.** What about the EC50 [7] of the same compound?
**A.** Its EC50 is 16000 nM.

**Q.** And the Activity [2]?
**A.** The Activity was 92%.

**Q.** And the T1/2 [10]?
**A.** The T1/2 was 13.2 s.

**Q.** What about the Activity [3] of the same compound?
**A.** The Activity was 107%.

**Q.** What about the Activity [4] of the same compound?
**A.** Its Activity is 176%.

**Q.** What about the Activity [5] of the same compound?
**A.** Its Activity is 72%.

**Q.** And the EC50 [9]?
**A.** The EC50 was 9950 nM.

**Q.** What about the Kdiss [11] of the same compound?
**A.** The Kdiss was 0.052 s⁻¹.

**Q.** What does the source list for CCNC(=O)[C@H]1O[C@@H](n2cnc3c(N)nc(NCCc4ccc(CCC(=O)O)cc4)nc32)[C@H](O)[C@@H]1O [CGS-21680]?
**A.** Emax at 10 µM [13]: 76%; IC50 [14]: 69.2 nM; IC50 [15]: 263 nM; Emax at 10 µM [16]: 91%

**Q.** What does the source list for O=C(Nc1ccccc1)Nc1ccc(Nc2nc(-c3ccccc3)nc3c2nnn3Cc2ccccc2)cc1?
**A.** Activity [1]: 133%; Activity [2]: 78%; Activity [3]: 110%; Activity [4]: 57%; Activity [5]: 79%
